Measurements: patent US5543415A, “Antidepressants” (Kyowa Hakko Kogyo Co., Ltd., priority 1992, dated 1996)

Test system: ddY-strain male mice
Assay: Acute Toxicity Test (minimum lethal dose, oral)
Format: in vivo
Conditions: seven days after administration
Experimental: Test compounds were orally administered to groups of ddY-strain male mice weighing 20±1 g, each group consisting of three mice. Seven days after the administration, minimum lethal dose (MLD) of each compound was determined by observing the mortality.

| Structure (SMILES) | MLD (minimum lethal dose) |
| --- | --- |
| CCn1c(=O)c2[nH]c(C(F)=Cc3ccccc3)nc2n(CC)c1=O (stereo in doubt) [Compound 137, (E)-1,3-Diethyl-8-(α-fluorostyryl)xanthine] | > 100 mg/kg |
| CCn1c(=O)c2c(nc(C(F)=Cc3ccccc3)n2C)n(CC)c1=O (stereo in doubt) [Compound 138, (E)-1,3-Diethyl-8-(α-fluorostyryl)-7-methylxanthine] | > 100 mg/kg |
| CCCCn1c(=O)c2nc(/C=C/c3cc(OC)c(OC)c(OC)c3)[nH]c2n(CCCC)c1=O [Compound 8, (E)-1,3-Dibutyl-8-(3,4,5-trimethoxystyryl)xanthine] | > 100 mg/kg |
| CCCCn1c(=O)c2c(nc(/C=C/c3cc(OC)c(OC)c(OC)c3)n2C)n(CCCC)c1=O [Compound 9, (E)-1,3-Dibutyl-7-methyl-8-(3,4,5-trimethoxystyryl)xanthine] | > 300 mg/kg |
| CCCn1c(=O)c2nc(/C=C/c3cc(OC)c(OC)c(OC)c3)[nH]c2n(CCC)c1=O [Compound 10, (E)-1,3-dipropyl-8-(3,4,5-trimethoxystyryl)xanthine] | > 300 mg/kg |
| COc1cc(/C=C/c2nc3c(=O)n(C)c(=O)n(C)c3[nH]2)cc(OC)c1OC [Compound 11, (E)-8-(3,4,5-trimethoxystyryl)theophylline] | > 300 mg/kg |
| C=CCn1c(=O)c2nc(/C=C/c3cc(OC)c(OC)c(OC)c3)[nH]c2n(CC=C)c1=O [Compound 12, (E)-1,3-diallyl-8-(3,4,5-trimethoxystyryl)xanthine] | > 300 mg/kg |
| CCCn1c(=O)c2[nH]c(/C=C/c3ccc(OC)c(C)c3C)nc2n(CCC)c1=O [Compound 13, (E)-8-(4-Methoxy-2,3-dimethylstyryl)-1,3-dipropylxanthine] | > 300 mg/kg |
| CCCn1c(=O)c2[nH]c(/C=C/c3ccc(OC)c(C)c3OC)nc2n(CCC)c1=O [Compound 15, (E)-8-(2,4-Dimethoxy-3-methylstyryl)-1,3-dipropylxanthine] | > 100 mg/kg |
| CCCn1c(=O)c2c(nc(/C=C/c3ccc(OC)c(C)c3OC)n2C)n(CCC)c1=O [Compound 16, (E)-8-(2,4-Dimethoxy-3-methylstyryl)-7-methyl-1,3-dipropylxanthine] | > 300 mg/kg |
| CCCn1c(=O)c2[nH]c(/C=C/c3ccc4c(c3)OCCO4)nc2n(CCC)c1=O [Compound 17, (E)-8-[2-(1,4-Benzodioxan-6-yl)vinyl]-1,3-dipropylxanthine] | > 300 mg/kg |
| CCCn1c(=O)c2[nH]c(/C=C/c3ccc4c(c3)OCO4)nc2n(CCC)c1=O [Compound 19, (E)-8-(3,4-Methylenedioxystyryl)-1,3-dipropylxanthine] | > 300 mg/kg |
| CCCn1c(=O)c2c(nc(/C=C/c3ccc4c(c3)OCO4)n2C)n(CCC)c1=O [Compound 20, (E)-7-Methyl-8-(3,4-methylenedioxystyryl)-1,3-dipropylxanthine] | > 300 mg/kg |
| CCCn1c(=O)c2nc(/C=C/c3ccc(OC)c(OC)c3OC)[nH]c2n(CCC)c1=O [Compound 21, (E)-1,3-Dipropyl-8-(2,3,4-trimethoxystyryl)xanthine] | > 300 mg/kg |
| CCCn1c(=O)c2nc(/C=C/c3cc(OC)c(OC)cc3OC)[nH]c2n(CCC)c1=O [Compound 23, (E)-1,3-Dipropyl-8-(2,4,5-trimethoxystyryl)xanthine] | > 300 mg/kg |
| CCCn1c(=O)c2c(nc(/C=C/c3cc(OC)c(OC)cc3OC)n2C)n(CCC)c1=O [Compound 24, (E)-7-Methyl-1,3-dipropyl-8-(2,4,5-trimethoxystyryl)xanthine] | > 300 mg/kg |
| CCCn1c(=O)c2[nH]c(/C=C/c3ccc(OC)cc3OC)nc2n(CCC)c1=O [Compound 25, (E)-8-(2,4-Dimethoxystyryl)-1,3-dipropylxanthine] | > 100 mg/kg |
| CCCn1c(=O)c2c(nc(/C=C/c3ccc(OC)cc3OC)n2C)n(CCC)c1=O [Compound 26, (E)-8-(2,4-Dimethoxystyryl)-7-methyl-1,3-dipropylxanthine] | > 300 mg/kg |
| CCCn1c(=O)c2[nH]c(/C=C/c3cc(OC)c(OCc4ccccc4)c(OC)c3)nc2n(CCC)c1=O [Compound 27, (E)-8-(4-Benzyloxy-3,5-dimethoxystyryl)-1,3-dipropylxanthine] | > 100 mg/kg |
| CCCn1c(=O)c2c(nc(/C=C/c3cc(OC)c(OCc4ccccc4)c(OC)c3)n2C)n(CCC)c1=O [Compound 28, (E)-8-(4-Benzyloxy-3,5-dimethoxystyryl)-7-methyl-1,3-dipropylxanthine] | > 100 mg/kg |
| CCCn1c(=O)c2[nH]c(/C=C/c3cccc(OC)c3OC)nc2n(CCC)c1=O [Compound 29, (E)-8-(2,3-Dimethoxystyryl)-1,3-dipropylxanthine] | > 100 mg/kg |
| CCCn1c(=O)c2c(nc(/C=C/c3cccc(OC)c3OC)n2C)n(CCC)c1=O [Compound 30, (E)-8-(2,3-Dimethoxystyryl)-7-methyl-1,3-dipropylxanthine] | > 300 mg/kg |
| CCCn1c(=O)c2[nH]c(/C=C/c3ccc(C)c(C)c3)nc2n(CCC)c1=O [Compound 31, (E)-8-(3,4-Dimethylstyryl)-1,3-dipropylxanthine] | > 100 mg/kg |

| Structure (SMILES) | MLD (minimum lethal dose) |
| --- | --- |
| CCCn1c(=O)c2c(nc(/C=C/c3ccc(C)c(C)c3)n2C)n(CCC)c1=O [Compound 32, (E)-8-(3,4-Dimethylstyryl)-7-methyl-1,3-dipropylxanthine] | > 300 mg/kg |
| CCCn1c(=O)c2nc(/C=C/c3cc(OC)cc(OC)c3)[nH]c2n(CCC)c1=O [Compound 33, (E)-8-(3,5-Dimethoxystyryl)-1,3-dipropylxanthine] | > 100 mg/kg |
| CCCn1c(=O)c2c(nc(/C=C/c3cc(OC)cc(OC)c3)n2C)n(CCC)c1=O [Compound 34, (E)-8-(3,5-Dimethoxystyryl)-7-methyl-1,3-dipropylxanthine] | > 300 mg/kg |
| CCCn1c(=O)c2[nH]c(/C=C/c3cccc([N+](=O)[O-])c3)nc2n(CCC)c1=O [Compound 35, (E)-8-(3-Nitrostyryl)-1,3-dipropylxanthine] | > 100 mg/kg |
| CCCn1c(=O)c2c(nc(/C=C/c3cccc([N+](=O)[O-])c3)n2C)n(CCC)c1=O [Compound 36, (E)-7-Methyl-8-(3-nitrostyryl)-1,3-dipropylxanthine] | > 100 mg/kg |
| CCCn1c(=O)c2nc(/C=C/c3cccc(F)c3)[nH]c2n(CCC)c1=O [Compound 37, (E)-8-(3-Fluorostyryl)-1,3-dipropylxanthine] | > 100 mg/kg |
| CCCn1c(=O)c2c(nc(/C=C/c3cccc(F)c3)n2C)n(CCC)c1=O [Compound 38, (E)-8-(3-Fluorostyryl)-7-methyl-1,3-dipropylxanthine] | > 300 mg/kg |
| CCCn1c(=O)c2nc(/C=C/c3cccc(Cl)c3)[nH]c2n(CCC)c1=O [Compound 39, (E)-8-(3-Chlorostyryl)-1,3-dipropylxanthine] | > 100 mg/kg |
| CCCn1c(=O)c2c(nc(/C=C/c3cccc(Cl)c3)n2C)n(CCC)c1=O [Compound 40, (E)-8-(3-Chlorostyryl)-7-methyl-1,3-dipropylxanthine] | > 300 mg/kg |
| CCCn1c(=O)c2[nH]c(/C=C/c3ccccc3Cl)nc2n(CCC)c1=O [Compound 41, (E)-8-(2-Chlorostyryl)-1,3-dipropylxanthine] | > 100 mg/kg |
| CCCn1c(=O)c2c(nc(/C=C/c3ccccc3Cl)n2C)n(CCC)c1=O [Compound 42, (E)-8-(2-Chlorostyryl)-7-methyl-1,3-dipropylxanthine] | > 100 mg/kg |
| CCCn1c(=O)c2[nH]c(/C=C/c3ccccc3F)nc2n(CCC)c1=O [Compound 43, (E)-8-(2-Fluorostyryl)-1,3-dipropylxanthine] | > 100 mg/kg |
| CCCn1c(=O)c2c(nc(/C=C/c3ccccc3F)n2C)n(CCC)c1=O [Compound 44, (E)-8-(2-Fluorostyryl)-7-methyl-1,3-dipropylxanthine] | > 100 mg/kg |
| CCCn1c(=O)c2[nH]c(/C=C/c3cc(C)c(OC)cc3C)nc2n(CCC)c1=O [Compound 45, (E)-8-(4-Methoxy-2,5-dimethylstyryl)-1,3-dipropylxanthine] | > 300 mg/kg |
| CCCn1c(=O)c2c(nc(/C=C/c3cc(C)c(OC)cc3C)n2C)n(CCC)c1=O [Compound 46, (E)-8-(4-Methoxy-2,5-dimethylstyryl)-7-methyl-1,3-dipropylxanthine] | > 300 mg/kg |
| CCCn1c(=O)c2c(nc(/C=C\c3ccc(OC)c(OC)c3)n2C)n(CCC)c1=O [Compound 47, (Z)-8-(3,4-Dimethoxystyryl)-7-methyl-1,3-dipropylxanthine] | > 300 mg/kg |
| CCCn1c(=O)c2[nH]c(/C=C/c3ccc(OCC)cc3)nc2n(CCC)c1=O [Compound 48, (E)-8-(4-Ethoxystyryl)-1,3-dipropylxanthine] | > 100 mg/kg |
| CCCOc1ccc(/C=C/c2nc3c([nH]2)c(=O)n(CCC)c(=O)n3CCC)cc1 [Compound 50, (E)-8-(4-Propoxystyryl)-1,3-dipropylxanthine] | > 100 mg/kg |
| CCCOc1ccc(/C=C/c2nc3c(c(=O)n(CCC)c(=O)n3CCC)n2C)cc1 [Compound 51, (E)-7-Methyl-8-(4-propoxystyryl)-1,3-dipropylxanthine] | > 300 mg/kg |
| CCCCOc1ccc(/C=C/c2nc3c([nH]2)c(=O)n(CCC)c(=O)n3CCC)cc1 [Compound 52, (E)-8-(4-Butoxystyryl)-1,3-dipropylxanthine] | > 100 mg/kg |
| CCCCOc1ccc(/C=C/c2nc3c(c(=O)n(CCC)c(=O)n3CCC)n2C)cc1 [Compound 53, (E)-8-(4-Butoxystyryl)-7-methyl-1,3-dipropylxanthine] | > 300 mg/kg |
| CCCn1c(=O)c2c(nc(/C=C/c3ccc(O)c(O)c3)n2C)n(CCC)c1=O [Compound 54, (E)-8-(3,4-Dihydroxystyryl)-7-methyl-1,3-dipropylxanthine] | > 100 mg/kg |
